# Patent EP4790048A1, “S1PR4 REGULATOR COMPOUND FOR AUTOIMMUNE DISEASE TREATMENT AND APPLICATION THEREOF” (Shengyuan Zetong (Shanghai) Pharmaceutical Co., Ltd, priority 2023, dated 2025)
# How the values were obtained:
# hS1P1 = biological target: T1, hS1P1 (Homo sapiens, UniProt P21453); assay: Tango β-arrestin recruitment luciferase assay, Tango-hS1P1-CHO; assay type: cell-based; conditions: β-arrestin recruitment; 20 h drug treatment; top 45 µM, 9 serial 5-fold dilutions; positive control 1 µM BAF-312; read-out: Tango-hS1P1-CHO EC50
# T1 construct: expressed in transfected cells; host or cells: CHO
# T1 sequence (P21453 whole entry): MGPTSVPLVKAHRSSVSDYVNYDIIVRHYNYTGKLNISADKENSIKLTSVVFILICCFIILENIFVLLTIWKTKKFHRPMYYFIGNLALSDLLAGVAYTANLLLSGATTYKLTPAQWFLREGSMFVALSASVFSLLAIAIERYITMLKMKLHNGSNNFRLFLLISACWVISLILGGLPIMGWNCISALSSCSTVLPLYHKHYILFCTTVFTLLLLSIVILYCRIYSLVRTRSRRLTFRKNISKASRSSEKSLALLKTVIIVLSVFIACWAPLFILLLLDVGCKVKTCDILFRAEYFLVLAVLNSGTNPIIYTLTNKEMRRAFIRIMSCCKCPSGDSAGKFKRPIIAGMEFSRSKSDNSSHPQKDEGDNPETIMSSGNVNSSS
# Text: (§1) The Tango assay detects ligand-dependent GPCR activity through the interaction between β-arrestin and GPCRs. […] The NTEV fragment and the tetracycline transactivator (tTA), an artificial transcription factor, are fused at the C-terminus of the GPCR, while the CTEV fragment is fused to human β-arrestin 2. To enhance the stability of the interaction between GPCR and β-arrestin, a short sequence from the C-terminus of the human arginine vasopressin receptor 2 (V2 tail) is inserted between the GPCR and NTEV. The V2 tail contains multiple GRK phosphorylation sites, which strengthen β-arrestin binding upon phosphorylation. The CTEV fragment carries the stabile point mutation S219P and is truncated at residue 221 to remove the autoinhibitory C-terminal tail. Meanwhile, β-arrestin 2 is truncated to lack the entire C-terminal tail (residues 383-410 deleted). This truncation confers robust stimulus-dependent receptor desensitization, thereby improving detection sensitivity compared with wild-type β-arrestin 2. The UAS reporter construct consists of upstream activating sequence (UAS) elements, a minimal CMV promoter, and a tTA-dependent luciferase reporter gene. Therefore, constructing Tango cells requires the co-transfection of the above three plasmids into host cells. Upon GPCR activation and β-arrestin recruitment, the TEV enzyme at the β-arrestin terminus cleaves tTA from the GPCR C-terminus. The released tTA initiates tTA-dependent luciferase transcription, and compound activity is ultimately determined by measuring luminescence intensity.
# (§2) • 1) Tango cell line from was digested from the culture dish respectively. After cell counting, the cells were plated at a density of 10,000 cells per well with […] into a white opaque 96-well plate (add 60 µL D'Hanks to the surrounding wells), and incubated overnight (20 h) in a 5% CO2 incubator at 37°C. The cell density will reach approximately 90% the next day. • 2) After 20 h, 30 µL of serially diluted compound solution was added to each well. The control group was supplemented with 30 µL F12K complete medium. Each group had three replicate wells. • 3) Samples were collected after 20 h of drug treatment.
# (§3) (All compounds were tested at a final concentration of 45 µM, with 9 serial dilutions at 5-fold intervals. 1 µM BAF-312 was used as the positive control for S1PR1, and 25 µM BAF-312 was used as the positive control for S1PR4.
# hS1P4 = biological target: T2, hS1P4 (Homo sapiens, UniProt O95977); assay: Tango β-arrestin recruitment luciferase assay, Tango-hS1P4-CHO; assay type: cell-based; conditions: β-arrestin recruitment; 20 h drug treatment; top 45 µM, 9 serial 5-fold dilutions; positive control 25 µM BAF-312; read-out: Tango-hS1P4-CHO EC50
# T2 construct: expressed in transfected cells; host or cells: CHO
# T2 sequence (O95977 1-384): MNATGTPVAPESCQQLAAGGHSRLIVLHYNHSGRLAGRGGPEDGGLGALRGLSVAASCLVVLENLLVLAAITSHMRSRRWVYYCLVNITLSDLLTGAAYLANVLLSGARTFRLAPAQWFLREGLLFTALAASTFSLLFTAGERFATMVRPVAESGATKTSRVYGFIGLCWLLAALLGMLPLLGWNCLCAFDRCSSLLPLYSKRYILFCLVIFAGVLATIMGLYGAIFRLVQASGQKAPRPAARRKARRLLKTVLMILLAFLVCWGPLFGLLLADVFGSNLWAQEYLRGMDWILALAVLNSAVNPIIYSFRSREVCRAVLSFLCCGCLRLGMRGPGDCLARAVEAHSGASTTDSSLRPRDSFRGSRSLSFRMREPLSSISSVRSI
# Text: as §1, §2, §3
EC50 (hS1P1) [nM],EC50 (hS1P4) [nM],Compound
454,–,CCc1cc(/C(C)=N/OCc2ccc(-c3ccccc3)c(C)c2)ccc1CN1CCCC(C(=O)O)C1 (stereo not shown) [Compound 33]
86.9,2.4,"CCc1cc(/C(C)=N/OCc2ccc(-c3ccc(F)cc3)c(C)c2)ccc1CN1CC[C@H](C(=O)O)C1 [Compound 34, (S, E)-1-(2-ethyl-4-(1-(((4'-fluoro-2-methyl-[1,1'-biphenyl]-4-yl)methoxy)imino)ethyl)benzyl)pyrrolidine-3-carboxylic acid]"
> 10000,–,CCc1cc(/C(C)=N/OCc2ccc(-c3cnn(C(C)(C)C)c3)c(C)c2)ccc1CN1CC[C@H](C(=O)O)C1 [Compound 39]
> 10000,–,CCc1cc(/C(C)=N/OCc2ccc(-c3cnn(C)c3)c(C)c2)ccc1CN1CC[C@H](C(=O)O)C1 [Compound 40]
> 10000,–,CCc1cc(/C(C)=N/OCc2ccc(-c3cncn3C)c(C)c2)ccc1CN1CC[C@H](C(=O)O)C1 [Compound 44]
> 10000,–,CCc1cc(/C(C)=N/OCc2ccc(-c3c(C)noc3C)c(C)c2)ccc1CN1CC[C@H](C(=O)O)C1 [Compound 45]
> 10000,–,"CCc1cc(/C(C)=N/OCc2ccc(-c3cncnc3)c(F)c2)ccc1CN1CC[C@H](C(=O)O)C1 [Compound 71, (S, E)-1-(2-ethyl-4-(1-(((3-fluoro-4-(pyrimidin-5-yl)benzyl)oxy)imino)ethyl)benzyl)pyrrolidine-3-carboxylic acid]"
–,1.51 ± 0.64,"CCc1cc(/C(C)=N/OCc2ccc(-c3cccs3)c(C)c2)ccc1CN1CC[C@H](C(=O)O)C1 [Compound 72, (S, E)-1-(2-ethyl-4-(1-(((3-methyl-4-(thiophen-2-yl)benzyl)oxy)imino)ethyl)benzyl)pyrrolidine-3-carboxylic acid]"
–,4.39 ± 0.91,"CCc1cc(/C(C)=N/OCc2ccc(-c3ccncn3)c(C)c2)ccc1CN1CC[C@H](C(=O)O)C1 [Compound 76, (S, E)-1-(2-ethyl-4-(1-(((3-methyl-4-(pyrimidin-4-yl)benzyl)oxy)imino)ethyl)benzyl)pyrrolidine-3-carboxylic acid]"
–,5.93 ± 4.12,"CCc1cc(/C(C)=N/OCc2ccc(-c3ncc(F)cn3)c(C)c2)ccc1CN1CC[C@H](C(=O)O)C1 [Compound 77, (S, E)-1-(2-ethyl-4-(1-(((4-(5-fluoropyrimidin-2-yl)-3-methylbenzyl)oxy)imino)ethyl)benzyl)pyrrolidine-3-carboxylic acid]"
–,103 ± 9.1,"CCc1cc(/C(C)=N/OCc2ccc(-c3cncnc3)c(C)c2)ccc1CN1CC(C(=O)O)C1 [Compound 81, (E)-1-(2-ethyl-4-(1-(((3-methyl-4-(pyrimidin-5-yl)benzyl)oxy)imino)ethyl)benzyl)azetidine-3-carboxylic acid]"
> 10000,–,"CCc1cc(/C(C)=N/OCc2ccc(-c3cncnc3C)c(C)c2)ccc1CN1CC[C@H](C(=O)O)C1 [Compound 83, (S, E)-1-(2-ethyl-4-(1-(((3-methyl-4-(4-methylpyrimidin-5-yl)benzyl)oxy)imino)ethyl)benzyl)pyrrolidine-3-carboxylic acid]"
> 10000,–,"CCc1cc(/C(C)=N/OCc2ccc(-c3ccnnc3)c(C)c2)ccc1CN1CC[C@H](C(=O)O)C1 [Compound 84, (S, E)-1-(2-ethyl-4-(1-(((3-methyl-4-(pyridazin-4-yl)benzyl)oxy)imino)ethyl)benzyl)pyrrolidine-3-carboxylic acid]"
–,> 10000,"CCc1cc(/C(C)=N/OCc2ccc(-c3cnc(F)cn3)c(C)c2)ccc1CN1CCC(C(=O)O)CC1 [Compound 90, (E)-1-(2-ethyl-4-(1-(((3-methyl-4-(5-fluoropyrazin-2-yl)-benzyl)oxy)imino)ethyl)benzyl)piperidine-4-carboxylic acid]"
–,> 10000,"CCc1cc(/C(C)=N/OCc2ccc(-c3cnc(F)cn3)c(C)c2)ccc1CN1CC(C(=O)O)C1 [Compound 91, (E)-1-(2-ethyl-4-(1-(((3-methyl-4-(5-fluoropyrazin-2-yl)-benzyl)oxy)imino)ethyl)benzyl)azetidine-3-carboxylic acid]"

# Further lines, the molecule ahead of its results:
Compound,EC50 (hS1P1) [nM],EC50 (hS1P4) [nM]
C/C(=N\OCc1ccc(C2CCCCC2)cc1)c1ccc(CN2CC(C(=O)O)C2)cc1 [Compound 1],699,2970
CCc1cc(/C(C)=N/OCc2ccc(C3CCCCC3)cc2)ccc1CN1CC(C(=O)O)C1 [Compound 3],578,2160
C/C(=N\OCc1ccc(C2CCCCC2)c(C(F)(F)F)c1)c1ccc(CN2CCCC(C(=O)O)C2)cc1 (stereo not shown) [Compound 7],508,2500
"C/C(=N\OCc1ccc(C2CCCCC2)c(C(F)(F)F)c1)c1ccc(CNC2CCCC(C(=O)O)C2)cc1 (stereo not shown) [Compound 9, (E)-3-((4-((1-((4-cyclohexyl-3-(trifluoromethyl)benzyl)oxy)imino)ethyl)benzyl)amino)cyclohexane-1-carboxylic acid]",455,2350
"CCc1cc(/C(C)=N/OCc2ccc(C)c(C(F)(F)F)c2)ccc1CN1CC(C(=O)O)C1 [Compound 14, (E)-1-(2-ethyl-4-(1-((4-methyl-3-(trifluoromethyl)benzyl)oxy)imino)ethyl)azetidine-3-carboxylic acid]",5990,3660
CCc1cc(/C(C)=N/OCc2ccc3ccccc3c2)ccc1CN1CC(C(=O)O)C1 [Compound 15],807,–
"CCc1cc(/C(C)=N/OCc2ccc(-c3ccccc3)cc2)ccc1CN1CC(C(=O)O)C1 [Compound 20, (E)-1-(4-(1-(([1,1'-biphenyl]-4-ylmethoxy)imino)ethyl)-2-ethylbenzyl)azetidine-3-carboxylic acid]",782 ± 24.9,–
"CCc1cc(/C(C)=N/OCc2ccc3c(c2)CCCC3)ccc1CN1CC(C(=O)O)C1 [Compound 23, (E)-1-(2-ethyl-4-(1-(((5,6,7,8-tetrahydronaphthalen-2-yl)methoxy)imino)ethyl)benzyl)azetidine-3-carboxylic acid]",560,–
CCc1cc(/C(C)=N/OCc2ccc(-c3ccc(F)nc3)cc2F)ccc1CN1CC[C@H](C(=O)O)C1 [Compound 65],> 10000,–
"CCc1cc(/C(C)=N/OCc2ccc(-c3ccc(F)nc3)nc2)ccc1CN1CC[C@H](C(=O)O)C1 [Compound 66, (S, E)-1-(2-ethyl-4-(1-(((6'-fluoro-[2,3'-bipyridin]-5-yl)methoxy)imino)ethyl)benzyl)pyrrolidine-3-carboxylic acid]",> 10000,–
"CCc1cc(/C(C)=N/OCc2ccc(-c3cncnc3)cc2)ccc1CN1CC[C@H](C(=O)O)C1 [Compound 70, (S, E)-1-(2-ethyl-4-(1-(((4-(pyrimidin-5-yl)benzyl)oxy)imino)ethyl)benzyl)pyrrolidine-3-carboxylic acid]",> 10000,–
CCc1cc(/C(C)=N/OCc2ccc(-c3cnsc3)cc2)ccc1CN1CC[C@H](C(=O)O)C1 [Compound 74],> 10000,–
CCc1cc(/C(C)=N/OCc2ccc(-c3ccns3)cc2)ccc1CN1CC[C@H](C(=O)O)C1 [Compound 75],> 10000,–
"CCc1cc(/C(C)=N/OCc2ccc(-c3cnc(F)nc3)cc2F)ccc1CN1CC[C@H](C(=O)O)C1 [Compound 79, (S, E)-1-(2-ethyl-4-(1-(((2-fluoro-4-(2-fluoropyrimidin-5-yl)benzyl)oxy)imino)ethyl)benzyl)pyrrolidine-3-carboxylic acid]",> 10000,–
"CCc1cc(/C(C)=N/OCc2ccc(-c3ccsc3)c(F)c2)ccc1CN1CC[C@H](C(=O)O)C1 [Compound 85, (S, E)-1-(2-ethyl-4-(1-(((3-fluoro-4-(thiophen-3-yl)benzyl)oxy)imino)ethyl)benzyl)pyrrolidine-3-carboxylic acid]",–,8.52 ± 0.21
"CCc1cc(/C(C)=N/OCc2c(F)cc(-c3ccc(F)nc3)cc2F)ccc1CN1CC[C@H](C(=O)O)C1 [Compound 86, (S, E)-1-(2-ethyl-4-(1-(((2,6-difluoro-4-(6-fluoropyridin-3-yl)benzyl)oxy)imino)ethyl)benzyl)pyrrolidine-3-carboxylic acid]",> 10000,–
